Here are results for 17 compounds from patent US9662323B2, “Compounds having muscarinic receptor antagonist and beta2 adrenergic receptor agonist activity” (CHIESI FARMACEUTICI S.p.A., priority 2015, dated 2017).

Assay [1] addresses T1, Human M3 receptor (Homo sapiens, UniProt P20309).
T1 construct: purchased Perkin Elmer
The experiment in a line: M3 Receptor Radioligand Binding Assay. As to conditions: human M3 receptor membranes, [3H]-N-methyl scopolamine; read-out: M3 binding affinity (Ki class). How it is done: Biological Characterization M3 Receptor Radioligand Binding Assay
The assay was carried out in 96-well polypropylene plates in a volume of 250 ul. […] The final assay concentration of DMSO was 0.5% (v/v). The plates were sealed and incubated for 2 h at room temperature on an orbital shaker (slow speed). Membranes were harvested onto 96-well unifilter GF/C filter plates pre-treated with 0.5% polyethyleneimine (v/v), using a filter manifold, washed four times with 200 ul of assay buffer. The plates were dried before addition of 50 μl of microscint-0, sealed then read in a Trilux Microbeta scintillation counter.

Assay [2] concerns the target T2, Human β2 adrenoceptor (Homo sapiens, UniProt P07550).
T2 construct: purchased Perkin Elmer
The experiment in a line: β2 Adrenoceptor Radioligand Binding Assay. The note with it: human β2 adrenoceptor membranes, 125-I Cyanopindolol; read-out: B2 binding affinity (Ki class). On the procedure: β2 Adrenoceptor Radioligand Binding Assay
The assay was carried out in 96-well polypropylene plates in a volume of 200 ul. The assay buffer used was 25 mM HEPES, 0.5% BSA (w/v), 1 mM EDTA, 0.02% ascorbic acid (v/v), (pH 7.4). The final assay concentration of DMSO was 0.5% (v/v). The plates were sealed and incubated for 1 h at room temperature on an orbital shaker (slow speed). Membranes were harvested onto 96-well unifilter GF/C filter plates pre-treated with 0.5% polyethyleneimine (v/v), using a filter manifold, washed six times with 200 ul of wash buffer containing 10 mM HEPES and 500 mM NaCl. The plates were dried before addition of 50 μl of microscint-0, sealed then read in a Trilux Microbeta scintillation counter. IC50 values are determined from competition curves using a non-linear curve fitting program. Ki values were calculated from IC50 values by the Cheng and Prusoff equation.

T2 sequence (P07550 whole entry): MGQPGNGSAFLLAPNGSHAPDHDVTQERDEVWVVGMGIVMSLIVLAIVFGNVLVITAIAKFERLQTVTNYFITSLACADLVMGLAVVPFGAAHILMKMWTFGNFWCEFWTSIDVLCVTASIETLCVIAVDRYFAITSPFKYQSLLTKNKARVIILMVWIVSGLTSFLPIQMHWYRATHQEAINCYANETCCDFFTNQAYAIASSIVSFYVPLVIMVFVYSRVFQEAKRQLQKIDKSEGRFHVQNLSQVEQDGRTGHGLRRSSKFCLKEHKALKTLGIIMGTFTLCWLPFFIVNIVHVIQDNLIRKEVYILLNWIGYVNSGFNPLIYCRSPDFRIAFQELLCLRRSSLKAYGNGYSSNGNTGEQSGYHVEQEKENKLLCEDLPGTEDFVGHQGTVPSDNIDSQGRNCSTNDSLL
T1 sequence (P20309 whole entry): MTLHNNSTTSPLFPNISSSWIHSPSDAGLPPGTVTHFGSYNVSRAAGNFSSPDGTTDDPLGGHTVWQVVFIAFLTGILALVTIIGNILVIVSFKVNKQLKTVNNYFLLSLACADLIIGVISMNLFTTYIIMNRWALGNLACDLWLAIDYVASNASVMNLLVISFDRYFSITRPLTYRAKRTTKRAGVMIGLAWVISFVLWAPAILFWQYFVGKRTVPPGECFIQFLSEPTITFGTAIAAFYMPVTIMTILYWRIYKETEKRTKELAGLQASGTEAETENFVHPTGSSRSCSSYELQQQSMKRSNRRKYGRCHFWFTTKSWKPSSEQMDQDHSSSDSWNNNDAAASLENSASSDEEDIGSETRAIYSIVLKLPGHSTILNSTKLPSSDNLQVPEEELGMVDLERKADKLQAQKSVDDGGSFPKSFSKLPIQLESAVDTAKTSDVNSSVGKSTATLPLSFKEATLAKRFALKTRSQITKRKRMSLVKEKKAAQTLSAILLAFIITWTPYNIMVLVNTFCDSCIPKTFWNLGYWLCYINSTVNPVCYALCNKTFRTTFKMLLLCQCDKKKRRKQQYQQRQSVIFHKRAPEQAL

Consider `Cc1cc(C(=O)N2CCC(C(=O)O[C@H]3CN4CCC3CC4)(c3ccccc3)CC2)ccc1OCCCCCNC[C@H](O)c1ccc(O)c2[nH]c(=O)ccc12` [Compound 10, (R)-Quinuclidin-3-yl 1-(4-((5-(((R)-2-hydroxy-2-(8-hydroxy-2-oxo-1,2-dihydroquinolin-5-yl)ethyl)amino)pentyl)oxy)-3-methylbenzoyl)-4-phenylpiperidine-4-carboxylate], for which the Ki (commonly a measure of affinity in units of concentration, obtained from inhibition or displacement) in assay [1] was 1 to 10 nM; in assay [2], under 1 nM.
On the same counts, the results for `O=C(NCCCCNC[C@H](O)c1ccc(O)c2[nH]c(=O)ccc12)c1ccc(C(=O)N2CC(C(=O)O[C@H]3CN4CCC3CC4)(c3ccccc3)C2)cc1` [Compound 10A, (R)-Quinuclidin-3-yl 1-(4-((4-(((R)-2-hydroxy-2-(8-hydroxy-2-oxo-1,2-dihydroquinolin-5-yl)ethyl)amino)butyl)carbamoyl)benzoyl)-3-phenylazetidine-3-carboxylate] are 1 to 10 nM and under 1 nM.
On the same counts, the results for `O=C(Cc1cccc(OCCCCCNC[C@H](O)c2ccc(O)c3[nH]c(=O)ccc23)c1)N1CCC(C(=O)O[C@H]2CN3CCC2CC3)(c2ccccc2)CC1` [Compound 11, (R)-Quinuclidin-3-yl 1-(2-(3-((5-(((R)-2-hydroxy-2-(8-hydroxy-2-oxo-1,2-dihydroquinolin-5-yl)ethyl)amino)pentyl)oxy)phenyl)acetyl)-4-phenylpiperidine-4-carboxylate] are 1 to 10 nM and under 1 nM.
On the same counts, the results for `O=C(NCCCCNC[C@H](O)c1ccc(O)c2[nH]c(=O)ccc12)c1ccc(C(=O)N2CC(C(=O)O[C@H]3CN4CCC3CC4)(c3ccccc3)C2)s1` [Compound 11A, (R)-Quinuclidin-3-yl 1-(5-((4-(((R)-2-hydroxy-2-(8-hydroxy-2-oxo-1,2-dihydroquinolin-5-yl)ethyl)amino)butyl)carbamoyl)thiophene-2-carbonyl)-3-phenylazetidine-3-carboxylate] are 1 to 10 nM and under 1 nM.
With `Cc1cc(CC(=O)N2CCC(C(=O)O[C@H]3CN4CCC3CC4)(c3ccccc3)CC2)ccc1OCCCCCNC[C@H](O)c1ccc(O)c2[nH]c(=O)ccc12` [Compound 12, (R)-Quinuclidin-3-yl 1-(2-(4-((5-(((R)-2-hydroxy-2-(8-hydroxy-2-oxo-1,2-dihydroquinolin-5-yl)ethyl)amino)pentyl)oxy)-3-methylphenyl)acetyl)-4-phenylpiperidine-4-carboxylate], the Ki is 1 to 10 nM in assay [1] and over 10 nM in assay [2].
Taken in the same sequence, the figures for `CCN(CCCNC[C@H](O)c1ccc(O)c2[nH]c(=O)ccc12)C(=O)c1ccc(CCC(=O)N2CC(C(=O)O[C@H]3CN4CCC3CC4)(c3ccccc3)C2)cc1` [Compound 12A, (R)-Quinuclidin-3-yl 1-(3-(4-(ethyl(3-(((R)-2-hydroxy-2-(8-hydroxy-2-oxo-1,2-dihydroquinolin-5-yl)ethyl)amino)propyl)carbamoyl)phenyl)propanoyl)-3-phenylazetidine-3-carboxylate] were 1 to 10 nM and 1 to 10 nM.
With `O=C(Cc1ccc(OCCCCCNC[C@H](O)c2ccc(O)c3[nH]c(=O)ccc23)c(F)c1)N1CCC(C(=O)O[C@H]2CN3CCC2CC3)(c2ccccc2)CC1` [Compound 13, (R)-Quinuclidin-3-yl 1-(2-(3-fluoro-4-((5-(((R)-2-hydroxy-2-(8-hydroxy-2-oxo-1,2-dihydroquinolin-5-yl)ethyl)amino)pentyl)oxy)phenyl)acetyl)-4-phenylpiperidine-4-carboxylate], the Ki in assay [1] is under 1 nM; in assay [2] it was over 10 nM.
As to `O=C(CCc1ccc(OCc2ccc(CNC[C@H](O)c3ccc(O)c4[nH]c(=O)ccc34)cc2)cc1)N1CC(C(=O)O[C@H]2CN3CCC2CC3)(c2ccccc2)C1` [Compound 13A, (R)-Quinuclidin-3-yl 1-(3-(4-((4-((((R)-2-hydroxy-2-(8-hydroxy-2-oxo-1,2-dihydroquinolin-5-yl)ethyl)amino)methyl)benzyl)oxy)phenyl)propanoyl)-3-phenylazetidine-3-carboxylate], the Ki in assay [1] and in assay [2] was 1 to 10 nM throughout.
For the compound `O=C(Cc1ccc(OCCCCCNC[C@H](O)c2ccc(O)c3[nH]c(=O)ccc23)c(-c2ccsc2)c1)N1CCC(C(=O)O[C@H]2CN3CCC2CC3)(c2ccccc2)CC1` [Compound 14, (R)-Quinuclidin-3-yl 1-(2-(4-((5-(((R)-2-hydroxy-2-(8-hydroxy-2-oxo-1,2-dihydroquinolin-5-yl)ethyl)amino)pentyl)oxy)-3-(thiophen-3-yl)phenyl)acetyl)-4-phenylpiperidine-4-carboxylate], the Ki in assay [1] is 1 to 10 nM; in assay [2], under 1 nM.
On the same counts, the results for `O=C(Cc1ccc(CC(=O)N2CC(C(=O)O[C@H]3CN4CCC3CC4)(c3ccccc3)C2)cc1)N(CCCNC[C@H](O)c1ccc(O)c2[nH]c(=O)ccc12)Cc1ccccc1` [Compound 14A, (R)-Quinuclidin-3-yl 1-(2-(4-(2-(benzyl(3-(((R)-2-hydroxy-2-(8-hydroxy-2-oxo-1,2-dihydroquinolin-5-yl)ethyl)amino)propyl)amino)-2-oxoethyl)phenyl)acetyl)-3-phenylazetidine-3-carboxylate] are under 1 nM and under 1 nM.
On the same counts, the results for `O=C(Cc1ccc(OCCCCCNC[C@H](O)c2ccc(O)c3[nH]c(=O)ccc23)c(-c2ccccc2)c1)N1CCC(C(=O)O[C@H]2CN3CCC2CC3)(c2ccccc2)CC1` [Compound 15, (R)-Quinuclidin-3-yl 1-(2-(6-((5-(((R)-2-hydroxy-2-(8-hydroxy-2-oxo-1,2-dihydroquinolin-5-yl)ethyl)amino)pentyl)oxy)-[1,1′-biphenyl]-3-yl)acetyl)-4-phenylpiperidine-4-carboxylate] are over 10 nM and under 1 nM.
On the same counts, the results for `O=C(Cc1ccc(OCc2ccc(CNC[C@H](O)c3ccc(O)c4[nH]c(=O)ccc34)cc2)cc1)N1CC(C(=O)O[C@H]2CN3CCC2CC3)(c2ccccc2)C1` [Compound 15A, (R)-Quinuclidin-3-yl 1-(2-(4-((4-((((R)-2-hydroxy-2-(8-hydroxy-2-oxo-1,2-dihydroquinolin-5-yl)ethyl)amino)methyl)benzyl)oxy)phenyl)acetyl)-3-phenylazetidine-3-carboxylate] are under 1 nM and under 1 nM.
In the case of `O=C(CCc1ccc(OCCCCCNC[C@H](O)c2ccc(O)c3[nH]c(=O)ccc23)c(-c2ccccc2)c1)N1CCC(C(=O)O[C@H]2CN3CCC2CC3)(c2ccccc2)CC1` [Compound 16, (R)-Quinuclidin-3-yl 1-(3-(6-((5-(((R)-2-hydroxy-2-(8-hydroxy-2-oxo-1,2-dihydroquinolin-5-yl)ethyl)amino)pentyl)oxy)-[1,1′-biphenyl]-3-yl)propanoyl)-4-phenylpiperidine-4-carboxylate], the Ki in assay [1] is 1 to 10 nM; in assay [2] it was under 1 nM.
On the same counts, the results for `O=C(NCc1ccc(CCNC[C@H](O)c2ccc(O)c3[nH]c(=O)ccc23)cc1)c1ccc(C(=O)N2CC(C(=O)O[C@H]3CN4CCC3CC4)(c3ccccc3)C2)cc1` [Compound 16A, (R)-Quinuclidin-3-yl 1-(4-((4-(2-(((R)-2-hydroxy-2-(8-hydroxy-2-oxo-1,2-dihydroquinolin-5-yl)ethyl)amino)ethyl)benzyl)carbamoyl)benzoyl)-3-phenylazetidine-3-carboxylate] are under 1 nM and under 1 nM.
Taken in the same sequence, the figures for `Cc1cc(CCC(=O)N2CCC(C(=O)O[C@H]3CN4CCC3CC4)(c3ccccc3)CC2)ccc1OCCCCCNC[C@H](O)c1ccc(O)c2[nH]c(=O)ccc12` [Compound 17, (R)-Quinuclidin-3-yl 1-(3-(4-((5-(((R)-2-hydroxy-2-(8-hydroxy-2-oxo-1,2-dihydroquinolin-5-yl)ethyl)amino)pentyl)oxy)-3-methylphenyl)propanoyl)-4-phenylpiperidine-4-carboxylate] were under 1 nM and under 1 nM.
On the same counts, the results for `O=C(NCc1ccc(C(=O)N2CC(C(=O)O[C@H]3CN4CCC3CC4)(c3ccccc3)C2)cc1)c1ccc(CNC[C@H](O)c2ccc(O)c3[nH]c(=O)ccc23)cc1` [Compound 17A, (R)-Quinuclidin-3-yl 1-(4-((4-((((R)-2-hydroxy-2-(8-hydroxy-2-oxo-1,2-dihydroquinolin-5-yl)ethyl)amino)methyl)benzamido)methyl)benzoyl)-3-phenylazetidine-3-carboxylate] are under 1 nM and under 1 nM.
On to `Cc1cc(/C=C/C(=O)N2CCC(C(=O)O[C@H]3CN4CCC3CC4)(c3ccccc3)CC2)ccc1OCCCCCNC[C@H](O)c1ccc(O)c2[nH]c(=O)ccc12` [Compound 18, (R)-Quinuclidin-3-yl 1-((E)-3-(4-((5-(((R)-2-hydroxy-2-(8-hydroxy-2-oxo-1,2-dihydroquinolin-5-yl)ethyl)amino)pentyl)oxy)-3-methylphenyl)acryloyl)-4-phenylpiperidine-4-carboxylate], for which the Ki in assay [1] and in assay [2] was under 1 nM in each case.
